In patent publication EP4803159A2, “CONJUGATE OF SALICYLIC ACID AND PEPTIDE” (Caregen Co., Ltd., priority 2017, dated 2018):

How the values were obtained:
[1] = system: HaCaT keratinocyte cell line; assay: Keratinocyte growth, sulforhodamine B (SRB) colorimetric assay; type: cell-based; details: 50 µM, 72 hours, serum-free medium, SRB absorbance at 560 nm, FIG. 2B
Description: To analyze growth factor-like efficacy and inhibitory efficacy of the compounds synthesized in Example <1-2>, a sulforhodamine B (SRB Sigma) colorimetric assay was performed using a HaCaT keratinocyte cell line (Korean Cell Line Bank) in accordance with a method of Rizzino, et al. (Cancer Res. 48:4266(1988))
HaCaT keratinocyte cell line was seeded in a 96-well plate at a density of 3,000 cells per well, and then cultured in Dulbecco's modified Eagle's medium (DMEM, Gibco, USA) containing 10% fetal bovine serum (FBS, Sigma) for 24 hours under conditions of 37°C and 5% CO2. The cultured cell line was detached from the bottom of the culture plate using a 1% trypsin solution, and only cell precipitate was collected by centrifugation. The cell precipitate was suspended in DMEM without FBS, and then cultured for 24 hours under conditions of 37°C and 5% CO2. 24 hours later, the medium was replaced by the same medium from which serum was completely removed. A blank sample in which the cell precipitate was dissolved sterile in 10% DMSO was prepared for standardization. Each of the compound 1 to the compound 4 (50 µM) of the present disclosure, salicylic acid (50 µM), and EGF (100 nM) as a positive control were treated. Incubation was carried out under the same conditions as above for 72 hours. […] Absorbance at UV 560 nm was measured to determine cell viability.

[2] = system: TNF-a, IL-6, IL-1b, and COX-2; assay: Anti-inflammatory effect, Propionibacterium acnes-induced inflammatory cytokine mRNA expression in keratinocytes (RT-PCR); type: cell-based; details: keratinocyte, 50 µg/ml Propionibacterium acnes, 50 µM compound, 24 hours; FIG. 8
Description: Anti-inflammatory effects of the compounds of the present disclosure were examined using Propionibacterium acnes. To this end, keratinocyte was seeded in a 6-well plate at a density of 300,000 cells per well, and then incubated in a DMEM culture medium (Gibco, USA) containing 10% FBS for 24 hours under conditions of 37°C and 5% CO2. After replacing the medium by a fresh medium, the cells were treated with 50 µg/ml of Propionibacterium acnes, and then the treated Propionibacterium acnes was treated with each 50 µM of the compound 1 and the compound 3 of the present disclosure and salicylic acid used as the positive control, followed by incubation for 24 hours under the same conditions as above. RNA was isolated from the cells, and cDNA was synthesized using a cDNA synthesis kit (Intron, Korea). PCR premix (Intron, Korea) and primers for each of TNF-a, IL-6, IL-1b, and COX-2 in Table 3 below were used to perform PCR. mRNA levels of TNF-a, IL-6, IL-1b and COX-2 were determined by 5% agarose gel electrophoresis.

[3] = distilled water, concentration of 10 mg/ml; FIG. 1

SMILES: O=C(O)c1ccccc1O [salicylic acid, 2-hydroxybenzoic acid]
- growth of keratinocytes [1]: inhibited growth of keratinocytes due to toxicity
- expression of inflammatory cytokines induced by Propionibacterium acnes [2]: hardly inhibited expression
- solubility in water [3]: hardly dissolved in water
